Data taken from ChEMBL document CHEMBL1201862, “PubChem BioAssay data set” (2004).
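Results reflect a 48-hour exposure of cells in 96-well plates to compound at five concentrations. The concentration for 50% growth inhibition is given as GI50.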 Active and inactive are the calls of the source. Cut-off read from the data, not from the text of the source: active = GI50 up to about 1.1 µM and inactive = higher.

Columns and labels:
Experiment in all cases: growth of human tumour cells (NCI), 48 h
HOP-92 = test system: HOP-92
BT-549 = test system: BT-549
KM12 = test system: KM12
UO-31 = test system: UO-31
Hs-578T = test system: Hs-578T
ACHN = test system: ACHN
Malme-3M = test system: Malme-3M
HT-29 = test system: HT-29
LOX IMVI = test system: LOX IMVI
HCT-116 = test system: HCT-116
SW-620 = test system: SW-620
HL-60 = test system: HL-60
TK-10 = test system: TK-10
SN12C = test system: SN12C
NCI-H522 = test system: NCI-H522
SK-MEL-28 = test system: SK-MEL-28
SK-MEL-5 = test system: SK-MEL-5
OVCAR-5 = test system: OVCAR-5
SNB-75 = test system: SNB-75
OVCAR-8 = test system: OVCAR-8
SNB-19 = test system: SNB-19
EKVX = test system: EKVX
RPMI-8226 = test system: RPMI-8226
A498 = test system: A498
HCT-15 = test system: HCT-15
OVCAR-4 = test system: OVCAR-4
A549 = test system: A549
M14 = test system: M14
SF-268 = test system: SF-268
U-251 = test system: U-251
MDA-N = test system: MDA-N
MDA-MB-231 = test system: MDA-MB-231
PC-3 = test system: PC-3
IGROV-1 = test system: IGROV-1
SK-OV-3 = test system: SK-OV-3
HCC 2998 = test system: HCC 2998
NCI/ADR-RES = test system: NCI/ADR-RES
COLO 205 = test system: COLO 205
CAKI-1 = test system: CAKI-1
MCF7 = test system: MCF7
K562 = test system: K562
MOLT-4 = test system: MOLT-4
NCI-H226 = test system: NCI-H226
RXF 393 = test system: RXF 393
HOP-62 = test system: HOP-62
UACC-257 = test system: UACC-257
NCI-H23 = test system: NCI-H23
UACC-62 = test system: UACC-62
MDA-MB-435 = test system: MDA-MB-435
T47D = test system: T47D
DU-145 = test system: DU-145
SK-MEL-2 = test system: SK-MEL-2
SR = test system: SR
OVCAR-3 = test system: OVCAR-3
786-0 = test system: 786-0
NCI-H460 = test system: NCI-H460
SF-295 = test system: SF-295
SF-539 = test system: SF-539
CCRF-CEM = test system: CCRF-CEM

Measured: GI50

Cc1ccc([N+](=O)[O-])cc1S(=O)(=O)Nc1ccc(C2=NN(S(=O)(=O)c3cc([N+](=O)[O-])ccc3C)C(c3cccs3)C2)cc1 (centres undefined)
33.2 µM: HCT-15
inactive: HOP-92 33.7 µM | BT-549 38.6 µM | KM12 30.1 µM | UO-31 34.5 µM | Hs-578T 12.8 µM | ACHN 32.4 µM | Malme-3M 47.9 µM | HT-29 38.4 µM | LOX IMVI 57 µM | HCT-116 26.5 µM | SW-620 49.7 µM | HL-60 32.9 µM | TK-10 38.6 µM | SN12C 33.7 µM | NCI-H522 26.1 µM | SK-MEL-28 65.8 µM | SK-MEL-5 29 µM | OVCAR-5 74 µM | SNB-75 > 100 µM | OVCAR-8 50.2 µM | SNB-19 45.2 µM | EKVX 29 µM | RPMI-8226 21.9 µM | A498 13.8 µM | OVCAR-4 37.4 µM | A549 32.7 µM | M14 36 µM | SF-268 28.1 µM | U-251 30.1 µM | MDA-N 33.7 µM | MDA-MB-231 24.9 µM | PC-3 30 µM | IGROV-1 46.3 µM | SK-OV-3 24.5 µM | HCC 2998 22.9 µM | NCI/ADR-RES 31.6 µM | COLO 205 9.59 µM | CAKI-1 44.1 µM | MCF7 10.7 µM | K562 24.2 µM | MOLT-4 22.4 µM | NCI-H226 52.7 µM | RXF 393 56.5 µM | HOP-62 30.1 µM | UACC-257 31.5 µM | NCI-H23 21.8 µM | UACC-62 15.8 µM | MDA-MB-435 50 µM | T47D 21.5 µM | DU-145 51.3 µM | SK-MEL-2 25.3 µM | SR 24.1 µM | OVCAR-3 19.6 µM | 786-0 44.2 µM | NCI-H460 28.2 µM | SF-295 21.2 µM

Cn1c(-c2ccc[se]2)ccc1-c1ccc(CO)[se]1
inactive: HOP-92 7.41 µM | BT-549 27.7 µM | KM12 32.1 µM | UO-31 36.3 µM | Hs-578T 33 µM | ACHN 23.2 µM | Malme-3M 10.2 µM | LOX IMVI 21.8 µM | HL-60 10 µM | SN12C > 76.6 µM | NCI-H522 27.9 µM | SK-MEL-28 52.8 µM | SK-MEL-5 24.9 µM | SNB-75 > 49.4 µM | OVCAR-8 33.1 µM | SNB-19 > 46.5 µM | EKVX 32.7 µM | RPMI-8226 1.28 µM | A549 52.6 µM | M14 > 66.2 µM | SF-268 44 µM | MDA-N 18 µM | MDA-MB-231 32.6 µM | PC-3 42.5 µM | SK-OV-3 17.1 µM | SF-539 26.9 µM | NCI/ADR-RES 9.48 µM | MOLT-4 21.1 µM | NCI-H23 24.9 µM | MDA-MB-435 17.3 µM | DU-145 35.9 µM | CCRF-CEM 17.1 µM | SK-MEL-2 34.7 µM | SR 10.4 µM | 786-0 25.6 µM | SF-295 31.3 µM
active: HCT-116 0.826 µM | SW-620 0.133 µM | TK-10 0.0129 µM | OVCAR-5 < 0.0209 µM | A498 0.0389 µM | OVCAR-4 0.0392 µM | U-251 < 0.0129 µM | IGROV-1 < 0.01 µM | HCC 2998 0.792 µM | COLO 205 0.367 µM | CAKI-1 < 0.01 µM | MCF7 0.0139 µM | K562 0.159 µM | NCI-H226 0.302 µM | RXF 393 0.239 µM | UACC-257 0.0461 µM | UACC-62 0.045 µM | T47D 0.0405 µM | OVCAR-3 0.0348 µM | NCI-H460 0.0206 µM
18.3 µM: HCT-15
